Assay results taken from PubChem BioAssay AID1645871.

Details: pampa; pH 5.0; 30.0 min; 50.0 µM
Work on `COc1ccccc1Nc1cnc2ccc(-c3ccc(OC)c(OC)c3)nn12` yielded a Papp of 621 ×10⁻⁶ cm/s. `CN(C(=O)CSc1nc2ccc(NC(=O)c3ccc(F)cc3)cc2s1)c1ccccc1` showed a Papp of 901 ×10⁻⁶ cm/s. `COc1ccccc1Nc1ccnc(N2CCN(C(=O)c3ccc(F)cc3)CC2)n1` gave a Papp of 853 ×10⁻⁶ cm/s. In the case of `CCC(CC)c1cc([C@H]2CN3CC[C@H]2C[C@@H]3CNS(=O)(=O)c2cccs2)nc(-c2ccncc2)n1`, the Papp is reported as 750 ×10⁻⁶ cm/s. For `CN1CCCC(CC2c3ccccc3Sc3ccccc32)C1` (stereo not drawn), the Papp was > 1000 ×10⁻⁶ cm/s. `COC(=O)c1cccc(NC(=O)c2cnc(-c3ccc(F)cc3)nc2-c2ccncc2)c1` showed a Papp of 671 ×10⁻⁶ cm/s. In the case of `Nc1nc2c(s1)C(c1ccc(F)cc1F)CC(=O)N2` (stereo not drawn), the Papp is reported as 5 ×10⁻⁶ cm/s. Work on `COc1ccc(CNC(=O)CCCn2nc(C)c3c(C)n(-c4ccc(C)cc4)nc3c2=O)cc1OC` yielded a Papp of 159 ×10⁻⁶ cm/s. For `CN1CCN(Cc2ccc(NC(=O)Cc3ccc(Oc4cc(NC(=O)C5CC5)ncn4)cc3)cc2C(F)(F)F)CC1`, the Papp was 19.3 ×10⁻⁶ cm/s. Work on `COc1ccccc1CNC(=O)CCCn1nc(C)c2c(C)n(-c3ccc(C)cc3)nc2c1=O` yielded a Papp of 237 ×10⁻⁶ cm/s. In the case of `NC(=O)c1ccc(-c2ncc3cnc(-c4cccc(F)c4)cn23)cc1`, the Papp is reported as 135 ×10⁻⁶ cm/s. With `Cc1ccc(NC2=C(c3ccc(C(F)(F)F)cc3)C(=O)c3ccccc32)cc1F` the Papp was 574 ×10⁻⁶ cm/s. Work on `c1ccc(Nc2cc3c(cn2)CN(Cc2ccsc2)CCN3)cc1` yielded a Papp of 15.3 ×10⁻⁶ cm/s. With `COc1ccccc1Nc1ccnc(N2CCN(C(=O)c3ccc(C)cc3)CC2)n1` the Papp was > 1000 ×10⁻⁶ cm/s. `COC(=O)Nc1nc2ccc(SC(C)C)cc2[nH]1` showed a Papp of 510 ×10⁻⁶ cm/s. `COc1cc(NC(=O)c2nc3ccccc3n(C)c2=O)cc(OC)c1OC` gave a Papp of 151 ×10⁻⁶ cm/s. Molecule `COc1ccc(-c2nc3sc(CCNC(=O)C(C)(C)C)c(C)n3n2)cc1` has a Papp of 657 ×10⁻⁶ cm/s. In the case of `Cc1c(C(=O)NN2CCCCC2)nn(-c2ccc(Cl)cc2Cl)c1-c1ccc(Cl)cc1`, the Papp is reported as > 1000 ×10⁻⁶ cm/s. With `CN(C)C(=O)c1nc(-c2ccc(Cl)cc2Cl)c2cnccn12` the Papp was > 1000 ×10⁻⁶ cm/s. With `CCCc1oc2ccc(NS(=O)(=O)c3ccc(OC)cc3)cc2c1C(=O)OCC` the Papp was 1.84 ×10⁻⁶ cm/s. Molecule `COc1ccc(-n2nc(C3CCCN([S+](=O)([O-])c4cccc(C(F)(F)F)c4)C3)[nH]c2=O)cc1` (stereo not drawn) has a Papp of 564 ×10⁻⁶ cm/s. With `COc1ccc(-n2nc(C3CCN([S+](=O)([O-])c4cccc(C(F)(F)F)c4)CC3)[nH]c2=O)cc1` the Papp was 434 ×10⁻⁶ cm/s. With `Cc1ccc(S(=O)(=O)Nc2ccccc2C(=O)Nc2nc(-c3ccccc3)cs2)cc1` the Papp was > 1000 ×10⁻⁶ cm/s. In the case of `c1cn2cc(-c3ccc4cn[nH]c4c3)nc(Nc3ccc(N4CCOCC4)cc3)c2n1`, the Papp is reported as > 1000 ×10⁻⁶ cm/s. For `CS(=O)(=O)c1ccc(-c2cnc(NCc3ccco3)n3cnnc23)cc1`, the Papp was 13.6 ×10⁻⁶ cm/s. Work on `O=C1CN(C(=O)CCC(=O)N2CCc3c(nc4cc(-c5ccccc5)[nH]n4c3=O)C2)c2ccccc2N1` yielded a Papp of 6.84 ×10⁻⁶ cm/s. Molecule `COCCNc1ncc(-c2cccc(O)c2)c2c1OCC2` has a Papp of 77 ×10⁻⁶ cm/s. Molecule `O=C(CCCN1CCC(n2c(=O)[nH]c3ccccc32)CC1)c1ccc(F)cc1` has a Papp of 98.2 ×10⁻⁶ cm/s. In the case of `CN(C)CC/C=C1\c2ccccc2Sc2ccc(Cl)cc21`, the Papp is reported as 531 ×10⁻⁶ cm/s. Molecule `Clc1ccc(C2(c3ccc(-c4cn[nH]c4)cc3)CCNCC2)cc1` has a Papp of 3.6 ×10⁻⁶ cm/s. In the case of `COc1cc2c(cc1Oc1cccc(N(C)C)c1)NC(=O)C21CCN(c2cnccn2)CC1`, the Papp is reported as > 1000 ×10⁻⁶ cm/s. `O=C(c1ccccc1)N1CCC(c2nn(-c3ccc(F)cc3)c(=O)[nH]2)CC1` gave a Papp of 521 ×10⁻⁶ cm/s. With `O=C(NCC1CCN(Cc2cccc(Cl)c2)CC1)Nc1ccc(F)c(Cl)c1` the Papp was 638 ×10⁻⁶ cm/s. In the case of `Cn1cc2c3c(cccc31)CN(C(=O)c1ccc(F)c(Cl)c1)CC2`, the Papp is reported as 824 ×10⁻⁶ cm/s. Work on `COc1ccc(-n2nc(C3CCN(C(=O)Cc4ccc(F)cc4)CC3)[nH]c2=O)cc1` yielded a Papp of 410 ×10⁻⁶ cm/s. `O=C(c1ccc2ncccc2c1)N1CCc2c(nc3cc[nH]n3c2=O)C1` showed a Papp of 5.6 ×10⁻⁶ cm/s. With `Cc1ccccc1NC(=O)Nc1cccs1` the Papp was 209 ×10⁻⁶ cm/s. With `CN1CCN(c2ccc(Nc3nn4c(=O)c5ccccc5nc4s3)cc2)CC1` the Papp was 5.91 ×10⁻⁶ cm/s. For `O=c1[nH]c(C2CCCN(CC3CCCCC3)C2)nn1-c1ccc(Cl)cc1` (stereo not drawn), the Papp was > 1000 ×10⁻⁶ cm/s. Work on `COc1ccc(CCNC(=O)Cn2c(=O)c3cccn3c3ccc(F)cc32)cc1OC` yielded a Papp of 317 ×10⁻⁶ cm/s. Molecule `CC1=C(C(=O)Nc2nc3ccccc3s2)C(c2[nH]ncc2Cl)N=C(Nc2nc3ccccc3o2)N1` (stereo not drawn) has a Papp of 15.6 ×10⁻⁶ cm/s. In the case of `CCOC(=O)c1ccc(N2C(=O)c3n[nH]c(-c4ccco4)c3C2c2ccc(C)cc2)cc1` (stereo not drawn), the Papp is reported as 231 ×10⁻⁶ cm/s. In the case of `C[C@H]1CN(C(=O)Nc2ccc(F)cc2)C[C@@H]1c1nc(-c2ccccc2)no1`, the Papp is reported as 809 ×10⁻⁶ cm/s. For `COc1ccc(-c2noc([C@@H]3Cc4nc[nH]c4CN3C(=O)NC3CCCCC3)n2)cc1`, the Papp was 58.2 ×10⁻⁶ cm/s. `CNC(=O)C1CCN(C(=O)c2ccc(-c3ncc4cnc(-c5ccccc5)cn34)cc2)CC1` showed a Papp of 30.1 ×10⁻⁶ cm/s. With `CC(C)(N)C(=O)N[C@H](COCc1ccccc1)C(=O)N1CCC2(CC1)CN(S(C)(=O)=O)c1ccccc12` the Papp was 27.5 ×10⁻⁶ cm/s. For `Cc1nc([C@](C)(O)CO)sc1-c1cnc(N)c(O[C@H](C)c2cc(F)ccc2-n2nccn2)c1`, the Papp was 322 ×10⁻⁶ cm/s. In the case of `Cn1nnnc1Sc1ncnc2scc(-c3ccccc3F)c12`, the Papp is reported as 451 ×10⁻⁶ cm/s. `CNc1sc(-c2cccc3ccccc23)nc1C#N` gave a Papp of 268 ×10⁻⁶ cm/s. With `Cc1nc(-c2ccco2)cc([C@H]2CN3CC[C@H]2C[C@@H]3CNC(=O)NC2CCCCC2)n1` the Papp was 4.96 ×10⁻⁶ cm/s. `COc1ccc(CN2CCNc3cc(Nc4ccccc4)ncc3C2)cc1O` showed a Papp of 3.07 ×10⁻⁶ cm/s. In the case of `CCOc1ccccc1CNS(=O)(=O)c1ccc(-c2cnc(C3CC3)o2)cc1`, the Papp is reported as > 1000 ×10⁻⁶ cm/s. With `O=C1Nc2cc(Cl)ccc2Nc2cscc21` the Papp was 63.3 ×10⁻⁶ cm/s.
